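These data come from cells grown in 96-well plates and exposed to compound for 48 hours at five concentrations. Abbreviation: GI50, concentration required for 50% inhibition of growth.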 Calls of active or inactive are those of the source. Rule as the data show it: active = GI50 up to about 1.1 µM and inactive = higher.
What was measured:
Assay in all cases: inhibition of tumour cell growth, NCI panel, 48 h
786-0 = system: 786-0
A498 = system: A498
A549 = system: A549
ACHN = system: ACHN
BT-549 = system: BT-549
CAKI-1 = system: CAKI-1
CCRF-CEM = system: CCRF-CEM
COLO 205 = system: COLO 205
DU-145 = system: DU-145
EKVX = system: EKVX
HCC 2998 = system: HCC 2998
HCT-116 = system: HCT-116
HCT-15 = system: HCT-15
HL-60 = system: HL-60
HOP-62 = system: HOP-62
HOP-92 = system: HOP-92
HT-29 = system: HT-29
Hs-578T = system: Hs-578T
IGROV-1 = system: IGROV-1
K562 = system: K562
KM12 = system: KM12
LOX IMVI = system: LOX IMVI
M14 = system: M14
MCF7 = system: MCF7
MDA-MB-231 = system: MDA-MB-231
MDA-MB-435 = system: MDA-MB-435
MDA-N = system: MDA-N
MOLT-4 = system: MOLT-4
Malme-3M = system: Malme-3M
NCI-H226 = system: NCI-H226
NCI-H23 = system: NCI-H23
NCI-H460 = system: NCI-H460
NCI-H522 = system: NCI-H522
NCI/ADR-RES = system: NCI/ADR-RES
OVCAR-3 = system: OVCAR-3
OVCAR-4 = system: OVCAR-4
OVCAR-5 = system: OVCAR-5
OVCAR-8 = system: OVCAR-8
PC-3 = system: PC-3
RPMI-8226 = system: RPMI-8226
RXF 393 = system: RXF 393
SF-268 = system: SF-268
SF-295 = system: SF-295
SF-539 = system: SF-539
SK-MEL-28 = system: SK-MEL-28
SK-MEL-2 = system: SK-MEL-2
SK-MEL-5 = system: SK-MEL-5
SK-OV-3 = system: SK-OV-3
SN12C = system: SN12C
SNB-19 = system: SNB-19
SNB-75 = system: SNB-75
SR = system: SR
SW-620 = system: SW-620
T47D = system: T47D
TK-10 = system: TK-10
U-251 = system: U-251
UACC-257 = system: UACC-257
UACC-62 = system: UACC-62
UO-31 = system: UO-31

O=C(/C=C/c1ccccc1)c1ccccc1 [CHALCONE]
GI50 (786-0): > 10 µM (inactive)
GI50 (A498): > 10 µM (inactive)
GI50 (A549): > 10 µM (inactive)
GI50 (ACHN): > 10 µM (inactive)
GI50 (BT-549): > 10 µM (inactive)
GI50 (CAKI-1): > 10 µM (inactive)
GI50 (CCRF-CEM): > 4.83 µM (inactive)
GI50 (COLO 205): > 10 µM (inactive)
GI50 (DU-145): > 10 µM (inactive)
GI50 (EKVX): > 10 µM (inactive)
GI50 (HCC 2998): > 10 µM (inactive)
GI50 (HCT-116): 2.01 µM (inactive)
GI50 (HCT-15): > 10 µM
GI50 (HL-60): 4.07 µM (inactive)
GI50 (HOP-62): > 10 µM (inactive)
GI50 (HOP-92): > 10 µM (inactive)
GI50 (HT-29): 6.07 µM (inactive)
GI50 (Hs-578T): > 10 µM (inactive)
GI50 (IGROV-1): > 10 µM (inactive)
GI50 (K562): > 4.84 µM (inactive)
GI50 (KM12): 3.78 µM (inactive)
GI50 (LOX IMVI): 1.9 µM (inactive)
GI50 (M14): > 10 µM (inactive)
GI50 (MCF7): 2.7 µM (inactive)
GI50 (MDA-MB-231): > 10 µM (inactive)
GI50 (MDA-MB-435): > 8.13 µM (inactive)
GI50 (MDA-N): > 10 µM (inactive)
GI50 (MOLT-4): 0.938 µM (active)
GI50 (Malme-3M): > 10 µM (inactive)
GI50 (NCI-H226): > 10 µM (inactive)
GI50 (NCI-H23): > 10 µM (inactive)
GI50 (NCI-H460): > 9.55 µM (inactive)
GI50 (NCI-H522): > 10 µM (inactive)
GI50 (NCI/ADR-RES): > 10 µM (inactive)
GI50 (OVCAR-3): > 10 µM (inactive)
GI50 (OVCAR-4): > 10 µM (inactive)
GI50 (OVCAR-5): > 10 µM (inactive)
GI50 (OVCAR-8): > 10 µM (inactive)
GI50 (PC-3): > 10 µM (inactive)
GI50 (RPMI-8226): > 4.85 µM (inactive)
GI50 (RXF 393): > 10 µM (inactive)
GI50 (SF-268): > 10 µM (inactive)
GI50 (SF-295): > 10 µM (inactive)
GI50 (SF-539): > 10 µM (inactive)
GI50 (SK-MEL-28): > 10 µM (inactive)
GI50 (SK-MEL-2): > 10 µM (inactive)
GI50 (SK-MEL-5): > 10 µM (inactive)
GI50 (SK-OV-3): > 10 µM (inactive)
GI50 (SN12C): > 10 µM (inactive)
GI50 (SNB-19): > 10 µM (inactive)
GI50 (SNB-75): > 10 µM (inactive)
GI50 (SR): > 6.58 µM (inactive)
GI50 (SW-620): 3.34 µM (inactive)
GI50 (T47D): > 10 µM (inactive)
GI50 (TK-10): > 10 µM (inactive)
GI50 (U-251): > 10 µM (inactive)
GI50 (UACC-257): > 10 µM (inactive)
GI50 (UACC-62): > 10 µM (inactive)
GI50 (UO-31): > 10 µM (inactive)

Cc1ccc(/C=C2\CN(C)CC3C2=NC(=S)NC3c2ccc(C)cc2)cc1 (stereo unspecified)
GI50 (786-0): 86.3 µM (inactive)
GI50 (A498): > 86.7 µM (inactive)
GI50 (A549): 35.3 µM (inactive)
GI50 (ACHN): > 100 µM (inactive)
GI50 (BT-549): > 72.4 µM (inactive)
GI50 (CAKI-1): > 77.1 µM (inactive)
GI50 (CCRF-CEM): 13.8 µM (inactive)
GI50 (COLO 205): 22.7 µM (inactive)
GI50 (DU-145): > 85.7 µM (inactive)
GI50 (EKVX): 9.93 µM (inactive)
GI50 (HCC 2998): 16.1 µM (inactive)
GI50 (HCT-116): 37.3 µM (inactive)
GI50 (HCT-15): 36 µM
GI50 (HL-60): 31.3 µM (inactive)
GI50 (HOP-62): > 100 µM (inactive)
GI50 (HOP-92): 1.69 µM (inactive)
GI50 (HT-29): 27.2 µM (inactive)
GI50 (Hs-578T): > 100 µM (inactive)
GI50 (IGROV-1): 13.7 µM (inactive)
GI50 (K562): 38.7 µM (inactive)
GI50 (KM12): 32.1 µM (inactive)
GI50 (LOX IMVI): 34.7 µM (inactive)
GI50 (M14): 42.5 µM (inactive)
GI50 (MCF7): 40.6 µM (inactive)
GI50 (MDA-MB-231): > 68.7 µM (inactive)
GI50 (MDA-MB-435): 16.7 µM (inactive)
GI50 (MDA-N): 22 µM (inactive)
GI50 (MOLT-4): 14.6 µM (inactive)
GI50 (Malme-3M): 92.7 µM (inactive)
GI50 (NCI-H226): > 100 µM (inactive)
GI50 (NCI-H23): > 74 µM (inactive)
GI50 (NCI-H460): 41.8 µM (inactive)
GI50 (NCI-H522): 24 µM (inactive)
GI50 (NCI/ADR-RES): 30.8 µM (inactive)
GI50 (OVCAR-3): 38.6 µM (inactive)
GI50 (OVCAR-4): 26.9 µM (inactive)
GI50 (OVCAR-5): > 100 µM (inactive)
GI50 (OVCAR-8): 53.1 µM (inactive)
GI50 (PC-3): 11 µM (inactive)
GI50 (RPMI-8226): 46.5 µM (inactive)
GI50 (RXF 393): 30.3 µM (inactive)
GI50 (SF-268): > 74.3 µM (inactive)
GI50 (SF-295): 61.8 µM (inactive)
GI50 (SF-539): > 100 µM (inactive)
GI50 (SK-MEL-28): > 100 µM (inactive)
GI50 (SK-MEL-2): > 30.7 µM (inactive)
GI50 (SK-MEL-5): 38.5 µM (inactive)
GI50 (SK-OV-3): > 100 µM (inactive)
GI50 (SN12C): 52.1 µM (inactive)
GI50 (SNB-19): > 61.9 µM (inactive)
GI50 (SNB-75): 60.8 µM (inactive)
GI50 (SR): 29.9 µM (inactive)
GI50 (SW-620): > 88.7 µM (inactive)
GI50 (T47D): 26 µM (inactive)
GI50 (TK-10): > 76.4 µM (inactive)
GI50 (U-251): 20.5 µM (inactive)
GI50 (UACC-257): 62.4 µM (inactive)
GI50 (UACC-62): > 100 µM (inactive)
GI50 (UO-31): 43.2 µM (inactive)

S=C1SSC2N=CC=CC12 (stereo unspecified)
GI50 (786-0): > 100 µM (inactive)
GI50 (A498): 29.9 µM (inactive)
GI50 (A549): 47.1 µM (inactive)
GI50 (ACHN): > 100 µM (inactive)
GI50 (BT-549): > 100 µM (inactive)
GI50 (CAKI-1): 19.7 µM (inactive)
GI50 (CCRF-CEM): 5.66 µM (inactive)
GI50 (COLO 205): > 100 µM (inactive)
GI50 (DU-145): > 100 µM (inactive)
GI50 (EKVX): > 100 µM (inactive)
GI50 (HCC 2998): 24.7 µM (inactive)
GI50 (HCT-116): 92.9 µM (inactive)
GI50 (HCT-15): 57.8 µM
GI50 (HL-60): 40.5 µM (inactive)
GI50 (HOP-92): 74.1 µM (inactive)
GI50 (HT-29): > 100 µM (inactive)
GI50 (Hs-578T): > 100 µM (inactive)
GI50 (IGROV-1): 78.7 µM (inactive)
GI50 (K562): 49.1 µM (inactive)
GI50 (KM12): 17.3 µM (inactive)
GI50 (LOX IMVI): 31.3 µM (inactive)
GI50 (M14): 85.5 µM (inactive)
GI50 (MCF7): 36.7 µM (inactive)
GI50 (MDA-MB-231): > 100 µM (inactive)
GI50 (MDA-MB-435): 17.3 µM (inactive)
GI50 (MDA-N): > 100 µM (inactive)
GI50 (MOLT-4): 38.3 µM (inactive)
GI50 (Malme-3M): 56 µM (inactive)
GI50 (NCI-H226): > 100 µM (inactive)
GI50 (NCI-H23): > 100 µM (inactive)
GI50 (NCI-H460): 31.4 µM (inactive)
GI50 (NCI-H522): 68.9 µM (inactive)
GI50 (NCI/ADR-RES): > 100 µM (inactive)
GI50 (OVCAR-3): > 100 µM (inactive)
GI50 (OVCAR-4): 16.2 µM (inactive)
GI50 (OVCAR-5): > 100 µM (inactive)
GI50 (OVCAR-8): > 100 µM (inactive)
GI50 (PC-3): 63.4 µM (inactive)
GI50 (RPMI-8226): 63.8 µM (inactive)
GI50 (RXF 393): 46.5 µM (inactive)
GI50 (SF-268): > 100 µM (inactive)
GI50 (SF-295): 84.9 µM (inactive)
GI50 (SF-539): > 100 µM (inactive)
GI50 (SK-MEL-28): > 100 µM (inactive)
GI50 (SK-MEL-2): > 100 µM (inactive)
GI50 (SK-MEL-5): 43.3 µM (inactive)
GI50 (SK-OV-3): > 100 µM (inactive)
GI50 (SN12C): > 100 µM (inactive)
GI50 (SNB-19): > 100 µM (inactive)
GI50 (SNB-75): > 100 µM (inactive)
GI50 (SR): 45.4 µM (inactive)
GI50 (SW-620): > 100 µM (inactive)
GI50 (T47D): 93.5 µM (inactive)
GI50 (TK-10): > 100 µM (inactive)
GI50 (U-251): > 100 µM (inactive)
GI50 (UACC-257): > 100 µM (inactive)
GI50 (UACC-62): 76.4 µM (inactive)
GI50 (UO-31): > 100 µM (inactive)

Reference: ChEMBL document CHEMBL1201862, “PubChem BioAssay data set” (2004)
